Values quoted from earlier work in patent US20220323353A1, “BIODEGRADABLE DRUG-ELUTING EMBOLIC PARTICLES FOR DELIVERY OF THERAPEUTIC AGENTS” (Becton, Dickinson and Company, priority 2019, published 2022).

Test system: hepatocellular carcinoma
Conditions: administrated via the hepatic artery

COc1cccc2c1C(=O)c1c(O)c3c(c(O)c1C2=O)C[C@@](O)(C(=O)CO)C[C@@H]3O[C@H]1C[C@H](N)[C@H](O)[C@H](C)O1 [doxorubicin]
antitumor activity in hepatocellular carcinoma patients: antitumor effects and partial response
